Marks after values point to notes of the source that are not given here.
How the values were obtained:
[1] = target: T1, Human RORγ Ligand Binding Domain (RORγ-LBD) (Homo sapiens, UniProt P51449); test: Dual Fluorescence Energy Transfer (FRET) assay: co-activator SRC1(2) peptide interaction with RORγ-LBD; assay type: biochemical; details: RORγ-LBD / SRC1(2) peptide, read-out: mean pIC50 (converted)
T1 construct: His6 with thrombin site) (N); made in house; host or cells: E. coli BL21(DE3), modified pET21a vector
T1 sequence (P51449 263-518): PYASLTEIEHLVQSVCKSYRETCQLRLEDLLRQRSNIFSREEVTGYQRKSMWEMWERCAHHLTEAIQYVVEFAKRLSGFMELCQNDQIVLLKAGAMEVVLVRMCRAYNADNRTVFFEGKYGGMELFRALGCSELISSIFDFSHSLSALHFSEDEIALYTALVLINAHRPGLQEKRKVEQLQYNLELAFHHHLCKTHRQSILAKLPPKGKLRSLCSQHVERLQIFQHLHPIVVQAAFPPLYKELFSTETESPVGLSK
From the text: Dual Fluorescence Energy Transfer (FRET) Assay
This assay is based on the knowledge that nuclear receptors interact with cofactors (transcription factors) in a ligand dependent manner. RORγ is a typical nuclear receptor in that it has an AF2 domain in the ligand binding domain (LBD) which interacts with co-activators.
This assay measures ligand-mediated interaction of the co-activator peptide with the purified bacterial-expressed RORγ ligand binding domain (RORγ-LBD) to indirectly assess ligand binding. RORγ has a basal level of interaction with the co-activator SRC1(2) in the absence of ligand, thus, it is possible to find ligands that inhibit or enhance the RORγ/SRC1(2) interaction.
Human RORγ Ligand Binding Domain (RORγ-LBD) was expressed in E. coli strain BL21(DE3) as an amino-terminal polyhistidine tagged fusion protein. DNA encoding this recombinant protein was sub-cloned into a modified pET21a expression vector (Novagen).
Approximately 50 g E. coli cell pellet was resuspended in 300 mL of lysis buffer (30 mM imidazole pH 7.0 and 150 mM NaCl). Cells were lysed by sonication and cell debris was removed by centrifugation for 30 minutes at 20,000 g at 4° C. […] The clarified lysate was loaded onto a column (XK-26) packed with ProBond Nickel Chelating resin (InVitrogen), pre-equilibrated with 30 mM imidazole pH 7.0 and 150 mM NaCl. After washing to baseline absorbance with the equilibration buffer, the column was developed with a gradient from 30 to 500 mM imidazole pH 7.0. Column fractions containing the RORγ-LBD protein were pooled and concentrated to a volume of 5 mLs. The concentrated protein was loaded onto a Superdex 200 column pre-equilibrated with 20 mM Tris-Cl pH 7.2 and 200 mM NaCl. The fractions containing the desired RORγ-LBD protein were pooled together.
Purified RORγ-LBD was buffer exchanged by exhaustive dialysis [3 changes of at least 20 volumes (>8000×)] against PBS [100 mM NaPhosphate, pH 8 and 150 mM NaCl]. […] The modified RORγ-LBD was dialyzed against 2 buffer changes—TBS pH 8.0 containing 5 mM DTT, 2 mM EDTA and 2% sucrose—each at least 20 times of the volume. The modified protein was distributed into aliquots, frozen on dry ice and stored at −80° C. The biotinylated RORγ-LBD was subjected to mass spectrometric analysis to reveal the extent of modification by the biotinylation reagent.
Biotinylated SRC1(2) solution was prepared by adding an appropriate amount of biotinylated SRC1(2) from the 100 uM stock solution to a buffer containing 10 mM of freshly added DTT from solid to give a final concentration of 40 nM. An appropriate amount of Europium labeled Streptavidin was then added to the biotinylated SRC1(2) solution in a tube to give a final concentration of 10 nM. The tube was inverted gently and incubated for 15 minutes at room temperature. Twenty-fold excess biotin from the 10 mM stock solution was added and the tube was inverted gently and incubated for 10 minutes at room temperature.
Biotinylated RORγ-LBD solution was prepared by adding an appropriate amount of biotinylated RORγ-LBD from the stock solution to a buffer containing 10 mM of freshly added DTT from solid to give a final concentration of 40 nM. An appropriate amount of APC labeled Streptavidin was then added to the biotinylated RORγ-LBD solution in a tube to give a final concentration of 20 nM. The tube was inverted gently and incubated for 15 minutes at room temperature. Twenty-fold excess biotin from the 10 mM stock solution was then added and the tube was inverted gently and incubated for 10 minutes at room temperature.
The reaction mixtures were incubated for 5 minutes. […] The plates were incubated for 1 hour and then read on ViewLux in Lance mode for EU/APC.

[2] = tested on: IL-17A secreted from antiCD3/CD28 stimulated Peripheral Blood Mononuclear cells (PBMC); test: Peripheral Blood Mononucleocyte Cell Assay (PBMC Assay - IL-17); assay type: cell-based; details: Homo sapiens, 48 h, IL-17A release, read-out: mean pIC50 (converted)
Method: Peripheral Blood Mononucleocvte Cell Assay (PBMC Assay—IL-17) […]
This assay is designed to measure levels of IL-17A secreted from antiCD3/CD28 stimulated frozen Peripheral Blood Mononuclear cells (PBMC) isolated from human blood with the aim of identifying inhibitors of IL-17A release.
2. The compounds for screening are dispensed into a master plate at 10 mM top concentration which are serially diluted 1:3 across 11 points in DMSO, then 500 nL is transferred into a 384-well flat-bottomed Greiner plate to which 50 uL of cell suspension is added: for the single shot screening the highest concentration of compound is 10^−5M; for 11 point full curve dose response studies the highest concentration is 10^−4 M.
As a low control, DMSO (as supplied, for example, by VWR) (final concentration 1%) in column 6 (16 points).
As a high control, 5-(4-fluorophenyl)-2-ureidothiophene-3-carboxamide (obtainable from, for example, Sigma) at a final concentration of 10^−4 M in DMSO should be used in column 18 (16 points).
9. Make the cell suspension at the concentration 8×10^5 cells/mL to give a final number of 40,000 cells/well.
1. Add well mixed CD3/CD28 Dynabeads (as supplied, for example, by Dynal) to achieve ratio bead:cell=2:1 (ie. a dilution of 1 in 20). Mix thoroughly.
2. Dispense the suspension into the 384 Assay Plates using Multidrop (50 uL per well). If the volume of cell suspension is large, mix the suspension after dispensing into every other plate.
3. Cover the plates with the lids and place them to the humidified incubator (37° C., 5% CO2) for 48 hours.
1. Transfer 10 uL of supernatants from assay plates to the MSD plates using Cybiwell. Ensure that all wells are covered with the solution. Tap the plate gently, if some of the wells are not covered with the supernatant.
3. Add 10 uL of MSD IL-17 detecting antibody using multidrop (1 ug/mL in D-PBS without Ca^2+ and Mg^2+ (supplied, for example, by Gibco)).
4. Cover the plates with adhesive foil and incubated with shaking for 3 hours at room temperature
7. Add 35 uL of MSD Read Buffer T×2 using multidrop.
8. Read plates on MSD MA6000 reader using the 384 well plate protocol as per manufacturer's instructions.

[3] = tested on: IL-22 mRNA expression; test: Ex-vivo human skin model, IL-22 mRNA expression; assay type: cell-based; details: Th17 cytokine cocktail 24 h, RT-PCR
Method: (§1) Fresh ex vivo human skin from healthy bariatric patients, that underwent abdominoplasty skin removal, was de-fatted and dermatomed at 750 μm. Dermatomed skin was incubated twice for 5-10 minutes at room temperature in PBS containing a antibiotic/antimycotic solution: Fungizone (Invitrogen #15290018), PSG (Fisher #BW17718R) and Gentamicin (Invitrogen #15750060). Skin was treated aseptically from this point on. Individual skin samples were obtained by 10 mm punch biopsy and placed in a 0.4 μm PCF membrane transwell (Millicell #PIHP01250) containing 30 μl of a 64% bovine collagen solution. After a 30 minute incubation at 37° C., which allows the collagen solution time to set, skin samples on transwells were transferred to 6-well plates (1 sample per well) and the lower chamber filled with 1 ml complete media (Cornification Media)+hydrocortisone (final concentration of 0.4 μg/ml) with or without test compounds at 10 μM (day −3) and allowed to rest overnight (16-18 h) at 37° C. Next, media was aspirated from the lower chamber, replaced with 1 ml complete media without hydrocortisone and incubated at 37° C. for 1 h. This constituted a ‘wash’ step. Following the hydrocortisone washout, media was again aspirated from the lower chamber and replaced with 1.0 ml complete media without hydrocortisone with or without GSK compounds at 10 μM (day −2). Cultures were incubated at 37° C. in a humidified chamber and media was refreshed one more day (day-1). The following day (day-0), cultures were stimulated for 24 h with a freshly made Th17 cytokine cocktail (CD3, 1 μg/ml, CD28, 2 μg/ml, IL-1b, 10 ng/ml, IL-6, 5 ng/ml, TGFb, 1 ng/ml, IL-21, 10 ng/ml, anti-IL-4, 1 μg/ml and anti-INFg, 1 μg/ml) with or without test compounds at 10 μM. Upon harvest (day +1), skin samples were minced with a razor blade and transferred to 1.5 ml RNAse-free tubes with 1 ml RNAlater solution until later analysis by RT-PCR (stored at −80 C).
(§2) Total RNA was isolated from about 30-40 mg of tissue using Qiagen's (Cat #74106) Mini RNA Isolation kit. Briefly, tissue was homogenized in the Precellys-24 machine using 300 μL of RLT buffer supplemented with 1% 2-Beta-Mercapto-Ethanol at 6300 rpm for 30 seconds for 6 cycles with a 2-minute ice break. 600 μL of water containing Proteinase K was added to the homogenate and digested at 55 C for 15 minutes. Digested tissue was spun down for 3 minutes at 10,000×g and the supernantant was used for RNA isolation using Qiagen's RNeasy mini columns according to manufacturer's protocol. 100 ng of RNA was used as template in a 20 μL PCR volume using Applied Biosciences RNA-to-CT 1 Step kit (AB Catalog #4392938) as well as the specific TaqMan probe for each gene to be quantified. Life Technologies FAM labeled Probes Catalog Numbers are as follows: ACTb=Hs01060665_g1, IL-17A=Hs00174383_m1, IL-17F=Hs00369400_m1, IL-22=Hs01574154_m1. All probes used (except for ACTb) expand an Exon. Applied Biosciences' Master Mix has a ROX dye internal control. OneStepPlus PCR machine was used for both the RT step and the 40 amplification cycles. RNA levels of gene of interest's relative expression were calculated using the Delta Delta CT formula.
(§3) First delta: Normalized to ACTb gene expression
(§4) Second delta: Normalized to sample 13 (Day 0+DMSO) for the gene of interest.

[4] = tested on: IL-17F mRNA expression; test: Ex-vivo human skin model, IL-17F mRNA expression; assay type: cell-based; details: Th17 cytokine cocktail 24 h, RT-PCR
Method: as §1, §2, §3, §4

[5] = tested on: IL-17A mRNA expression; test: Ex-vivo human skin model, IL-17A mRNA expression; assay type: cell-based; details: Th17 cytokine cocktail 24 h, RT-PCR
Method: as §1, §2, §3, §4

Cc1ccc(N(CC(C)C)S(=O)(=O)c2ccc(OCC3CCOCC3)c(C3CC3)c2)c(C)c1 [Example E21, 3-cyclopropyl-N-(2,4-dimethylphenyl)-N-isobutyl-4-((tetrahydro-2H-pyran-4-yl)methoxy)benzenesulfonamide]
IC50 [1]: ≤ 0.0158 µM
IC50 [2]: < 1 µM

CCc1ccc(N(CC(C)C)S(=O)(=O)c2ccc(C(O)CN3CCOCC3)c(CO)c2)cc1 (racemic) [Example E123, N-(4-ethylphenyl)-4-(1-hydroxy-2-morpholinoethyl)-3-(hydroxymethyl)-N-isobutylbenzenesulfonamide]
Percentage of inhibition of IL-22 mRNA expression ([3]; Skin Donor 1, compound 10 μM): 63% *
Percentage of inhibition of IL-22 mRNA expression ([3]; Skin Donor 2, compound 10 μM): 57%
Percentage of inhibition of IL-22 mRNA expression ([3]; Skin Donor 3, compound 10 μM): 50%
Percentage of inhibition of IL-22 mRNA expression ([3]; Skin Donor 4, compound 10 μM): 68% *
IC50 [1]: 0.0316 µM
Percentage of inhibition of IL-17F mRNA expression ([4]; Skin Donor 1, compound 10 μM): 55% *
Percentage of inhibition of IL-17F mRNA expression ([4]; Skin Donor 2, compound 10 μM): 84% *
Percentage of inhibition of IL-17F mRNA expression ([4]; Skin Donor 3, compound 10 μM): 65% *
Percentage of inhibition of IL-17F mRNA expression ([4]; Skin Donor 4, compound 10 μM): 87% *
Percentage of inhibition of IL-17A mRNA expression ([5]; Skin Donor 1, compound 10 μM): 76% *
Percentage of inhibition of IL-17A mRNA expression ([5]; Skin Donor 2, compound 10 μM): 92% *
Percentage of inhibition of IL-17A mRNA expression ([5]; Skin Donor 3, compound 10 μM): 73% *
Percentage of inhibition of IL-17A mRNA expression ([5]; Skin Donor 4, compound 10 μM): 91% *

Cc1ccc(N(CC(C)C)S(=O)(=O)c2cc(F)c(OCC3CCOCC3)c(F)c2)c(C)c1 [Example E23]
IC50 [1]: ≤ 0.0158 µM

Cc1ccc(N(CC(C)C)S(=O)(=O)c2ccc(OCC3CCOCC3)cc2O)c(C)c1 [Example E26, N-(2,4-dimethylphenyl)-2-hydroxy-N-isobutyl-4-((tetrahydro-2H-pyran-4-yl)methoxy)benzenesulfonamide]
IC50 [1]: ≤ 0.0158 µM

Cc1ccc(N(CC(C)C)S(=O)(=O)c2ccc(OCC3CCOCC3)cc2)c(C)c1 [Example E12]
IC50 [1]: ≤ 0.0158 µM
IC50 [2]: < 1 µM

Cc1ccc(N(CC(C)C)S(=O)(=O)c2ccc(OCC3CCOCC3)c(C)c2)c(C)c1 [Example E24]
IC50 [1]: ≤ 0.0158 µM

Cc1ccc(N(CC(C)C)S(=O)(=O)c2ccc(OCC3CCOCC3)cc2C)c(C)c1 [Example E25]
IC50 [1]: ≤ 0.0158 µM

Cc1ccc(N(CC(C)C)S(=O)(=O)c2ccc(OCC3CCOCC3)c(Cl)c2)c(C)c1 [Example E20]
IC50 [1]: ≤ 0.0158 µM

Reference: patent US9428452B2, “Compounds” (Glaxo Group Limited, priority 2012, dated 2016)
